16 compounds from patent publication US11618747B2, “LXR modulators with bicyclic core moiety” (OrsoBio, Inc., priority 2018, dated 2023) can be followed below.

Where two headings read alike, the source gives them in different places. Some results are limits rather than exact numbers.

For data set [1], the target named is T1, LXRβ ligand-binding domain (Homo sapiens, UniProt P55055, DUP175-175).
T1 construct: amino acids 156-461; NP009052; made in house; host or cells: E. coli
T1 sequence (P55055 with tags, fused parts or gaps DUP175-175 limits assumed): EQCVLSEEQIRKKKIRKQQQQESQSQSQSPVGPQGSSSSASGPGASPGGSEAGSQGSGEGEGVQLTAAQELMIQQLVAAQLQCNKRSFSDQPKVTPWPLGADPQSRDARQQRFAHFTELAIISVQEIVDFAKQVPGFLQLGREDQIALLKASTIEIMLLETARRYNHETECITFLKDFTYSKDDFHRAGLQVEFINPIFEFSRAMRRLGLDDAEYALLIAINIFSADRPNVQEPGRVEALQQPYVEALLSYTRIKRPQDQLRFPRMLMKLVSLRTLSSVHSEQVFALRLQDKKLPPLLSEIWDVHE
Kind of data set: TR-FRETβ activity assay (NCoA3 coactivator peptide recruitment). It counts as biochemical. The procedure, abridged: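 Inverse agonism assessed by loss of coactivator recruitment, read as TR-FRET 665/615 nm after 1 h equilibration at 4 °C, in triplicate. Ten-point titration from 50 μM to 0.002 μM against LXRβ LBD (76 nM, GST fusion) prestimulated with 1 μM 24(S)-25-epoxycholesterol, with 400 nM NCoA3 peptide, pH 6.8. Sulfonyl acetic acids kept as 20 mM DMSO stocks with 100 mM TFA.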

Data set [2] can be described thus: Short term HFD mouse model: plasma and liver exposure. In kind it is in vivo, mice (C57BL/6J). Conditions: HFD mice, 4 h after last dose. The procedure: Short Term HFD Mouse Model:
The in vivo transcriptional regulation of several LXR target genes by LXR modulators was assessed in mice.
For this, C57BL/6J were purchased from Elevage Janvier (Rennes, France) at the age of 8 weeks. After an acclimation period of two weeks, animals were preferred on a high fat diet (HFD) (Ssniff Spezialdiäten GmbH, Germany, Surwit EF D12330 mod, Cat. No. E15771-34), with 60 kcal % from fat plus 1% (w/w) extra cholesterol (Sigma-Aldrich, St. Louis, Mo.) for 5 days. Animals were maintained on this diet during treatment with LXR modulators. The test compounds were formulated in 0.5% hydroxypropylmethylcellulose (HPMC) and administered in three doses (from 1.5 to 20 mg/kg each) by oral gavage according to the following schedule: on day one, animals received treatment in the morning and the evening (ca. 17:00), on day two animals received the final treatment in the morning after a 4 h fast and were sacrificed 4 h thereafter. Animal work was conducted according to the national guidelines for animal care in Germany.
Upon termination, liver was collected, dipped in ice cold PBS for 30 seconds and cut into appropriate pieces. Pieces were snap frozen in liquid nitrogen and stored at −80° C. For the clinical chemistry analysis from plasma, alanine aminotransferase (ALT, IU/mL), cholesterol (CHOL, mg/dL) and triglycerides (TG, mg/dL) were determined using a fully-automated bench top analyzer (Respons®910, DiaSys Greiner GmbH, Flacht, Germany) with system kits provided by the manufacturer.

Where [3] appears, read: TR-FRET, 1 μM 24(S)-25-epoxycholesterol prestimulation, read-out: FRETβ (EC50 range).

Consider `N#Cc1ccccc1-c1c(-c2cccc(-c3ccc(C(=O)O)cc3Cl)c2)n(S(=O)(=O)c2ccc(C(F)F)cc2)c2ccc(F)cc12` [11/33], for which the “FRETβ efficacy (value in brackets)” value in data set [1] (1 μM 24(S)-25-epoxycholesterol as prestimulating agonist) is −99%. Also, the EC50 in data set [1] (1 μM 24(S)-25-epoxycholesterol as prestimulating agonist, read-out: FRETβ potency) was 19 nM. Also, the EC50 in data set [1] (setting [3]) was under 100 nM. Also, in data set [2] (three oral doses of 20 mg/kg), the “liver exposure 4 h” value is “C (1 μM to ≤10 μM)”, the “liver/plasma ratio 4 h” value is “C (30 to ≤100)” and the “plasma exposure 4 h” value is recorded as “C (C: 100 nM to <300 nM)”.

With `COc1c(C(=O)O)ccc(-c2cccc(-c3c(-c4ccccc4C#N)c4cc(F)ccc4n3S(=O)(=O)c3ccc(C(F)F)cc3)c2)c1Cl` [11/27], the EC50 in data set [1] (setting [3]) was under 100 nM. In data set [2] (three oral doses of 20 mg/kg), the “liver exposure 4 h” value is on record as “C (1 μM to ≤10 μM)”, the “liver/plasma ratio 4 h” value is “C (30 to ≤100)” and the “plasma exposure 4 h” value is given as “D (D: <100 nM)”.

As to `O=C(O)c1ccc(-c2cccc(-c3c(-c4ccccc4C4COC4)c4cc(F)ccc4n3S(=O)(=O)c3ccc(C(F)F)cc3)c2)c(Cl)c1` [3/59], the EC50 in data set [1] (setting [3]) was under 100 nM. In data set [2] (three oral doses of 20 mg/kg), the “liver exposure 4 h” value is listed as “C (1 μM to ≤10 μM)”, the “liver/plasma ratio 4 h” value is “B (5 to ≤30)” and the “plasma exposure 4 h” value is “C (C: 100 nM to <300 nM)”.

Consider `N#Cc1nccnc1-c1c(-c2cccc(-c3cc(F)c(C(=O)O)cc3Cl)c2)n(S(=O)(=O)c2ccc(C(F)F)cc2)c2ccc(F)cc12` [11/11], for which, in data set [1] (setting [3]), the EC50 was under 100 nM. In data set [2] (three oral doses of 20 mg/kg), the “liver exposure 4 h” value is listed as “D (>10 μM)”, the “liver/plasma ratio 4 h” value is “D (>100)” and the “plasma exposure 4 h” value was “D (D: <100 nM)”.

Consider `N#Cc1cccc(C#N)c1-c1c(-c2cccc(-c3c(F)cc(C(=O)O)cc3F)c2)n(S(=O)(=O)c2ccc(C(F)F)cc2)c2ccc(F)cc12` [11/53], for which the EC50 in data set [1] (setting [3]) is under 100 nM. In data set [2] (three oral doses of 10 mg/kg), the “liver exposure 4 h” value was “C (1 μM to ≤10 μM)”, the “liver/plasma ratio 4 h” value is reported as “C (30 to ≤100)” and the “plasma exposure 4 h” value is reported as “D (D: <100 nM)”.

As for `N#Cc1cccc(C#N)c1-c1c(-c2cccc(-c3ccc(C(=O)O)cc3Cl)c2)n(S(=O)(=O)C2CCC(F)(F)CC2)c2ccc(F)cc12` [11/63], in data set [1] (setting [3]), the EC50 fell in the range of 100 to 1000 nM. Moreover, in data set [2] (three oral doses of 10 mg/kg), the “liver exposure 4 h” value is listed as “C (1 μM to ≤10 μM)”, the “liver/plasma ratio 4 h” value was “B (5 to ≤30)” and the “plasma exposure 4 h” value is recorded as “D (D: <100 nM)”.

With `O=C(O)c1ccc(-c2cccc(-c3c(-c4ncccc4C(F)(F)F)c4cc(F)ccc4n3S(=O)(=O)c3ccc(C(F)F)cc3)c2)c(Cl)c1` [11/23], the EC50 in data set [1] (setting [3]) was under 100 nM. Besides, in data set [2] (three oral doses of 20 mg/kg), the “liver exposure 4 h” value is given as “C (1 μM to ≤10 μM)”, the “liver/plasma ratio 4 h” value is reported as “B (5 to ≤30)” and the “plasma exposure 4 h” value was “C (C: 100 nM to <300 nM)”.

For `Cc1ccc(S(=O)(=O)n2c(-c3cccc(-c4ccc(C(=O)O)cc4Cl)c3)c(-c3ccsc3C#N)c3cc(F)ccc32)cc1` [3/48], the EC50 in data set [1] (setting [3]) was 100 to 1000 nM. Also, in data set [2] (three oral doses of 20 mg/kg), the “liver exposure 4 h” value is recorded as “C (1 μM to ≤10 μM)”, the “liver/plasma ratio 4 h” value is listed as “C (30 to ≤100)” and the “plasma exposure 4 h” value was “D (D: <100 nM)”.

Turning to `N#Cc1ccccc1-c1c(-c2cccc(-c3ccc(C(=O)O)cc3Cl)c2)n(S(=O)(=O)c2ccc(C(F)F)cc2)c2cnccc12` [11/49], the EC50 in data set [1] (setting [3]) was under 100 nM. In data set [2] (three oral doses of 20 mg/kg), the “liver exposure 4 h” value is on record as “C (1 μM to ≤10 μM)”, the “liver/plasma ratio 4 h” value is recorded as “D (>100)” and the “plasma exposure 4 h” value was “D (D: <100 nM)”.

Consider `N#Cc1cccc(C#N)c1-c1c(-c2cccc(-c3ccc(C(=O)NCCS(=O)(=O)O)cc3Cl)c2)n(S(=O)(=O)c2ccc(C(F)F)cc2)c2ccc(F)cc12` [10/1], for which the EC50 in data set [1] (setting [3]) was under 100 nM. Further, in data set [2] (three oral doses of 10 mg/kg), the “liver exposure 4 h” value was “B (300 nM to ≤1 μM)”, the “liver/plasma ratio 4 h” value is “C (30 to ≤100)” and the “plasma exposure 4 h” value is recorded as “D (D: <100 nM)”.

Turning to `N#Cc1cccc(C#N)c1-c1c(-c2cccc(-c3ccc(C(=O)O)cc3Cl)c2)n(S(=O)(=O)c2ccc(C(F)(F)F)nc2)c2ccc(F)cc12` [11/37], in data set [1] (setting [3]), the EC50 was under 100 nM. In data set [2] (three oral doses of 10 mg/kg), the “liver exposure 4 h” value was “C (1 μM to ≤10 μM)”, the “liver/plasma ratio 4 h” value was “C (30 to ≤100)” and the “plasma exposure 4 h” value is on record as “D (D: <100 nM)”.

In the case of `Cc1ccc(S(=O)(=O)n2c(-c3cccc(-c4ccc(C(=O)O)cc4)c3)c(-c3ccsc3C#N)c3cc(F)ccc32)cc1C` [23/2], the EC50 in data set [1] (setting [3]) fell in the range of 100 to 1000 nM. In addition, in data set [2] (three oral doses of 20 mg/kg), the “liver exposure 4 h” value was “A (<300 nM)”, the “liver/plasma ratio 4 h” value is “A (<5)” and the “plasma exposure 4 h” value was “C (C: 100 nM to <300 nM)”.

For the compound `N#Cc1cccc(C#N)c1-c1c(-c2cccc(-c3ccc(C(=O)O)cc3F)c2)n(S(=O)(=O)c2ccc(C(F)F)cc2)c2ccc(F)cc12` [11/51], in data set [1] (setting [3]), the EC50 is under 100 nM. Also, in data set [2] (three oral doses of 10 mg/kg), the “liver exposure 4 h” value is on record as “C (1 μM to ≤10 μM)”, the “liver/plasma ratio 4 h” value is “C (30 to ≤100)” and the “plasma exposure 4 h” value was “D (D: <100 nM)”.

Regarding `Cc1ccc(S(=O)(=O)n2c(-c3cccc(C45CCC(C(=O)O)(CC4)CC5)c3)c(-c3ccsc3C#N)c3cc(F)ccc32)cc1` [3/64], the EC50 in data set [1] (setting [3]) is 100 to 1000 nM. Besides, in data set [2] (three oral doses of 20 mg/kg), the “liver exposure 4 h” value was “D (>10 μM)”, the “liver/plasma ratio 4 h” value is “D (>100)” and the “plasma exposure 4 h” value is listed as “C (C: 100 nM to <300 nM)”.

As for `N#Cc1sccc1-c1c(-c2cccc(-c3ccc(C(=O)O)cc3Cl)c2)n(S(=O)(=O)c2ccc(C(F)(F)F)nc2)c2ccc(F)cc12` [11/16], the EC50 in data set [1] (setting [3]) was 100 to 1000 nM. Moreover, in data set [2] (three oral doses of 20 mg/kg), the “liver exposure 4 h” value is recorded as “C (1 μM to ≤10 μM)”, the “liver/plasma ratio 4 h” value is “B (5 to ≤30)” and the “plasma exposure 4 h” value was “C (C: 100 nM to <300 nM)”.

For `CC(=O)NS(=O)(=O)c1ccc(-c2cccc(-c3c(-c4c(C#N)cccc4C#N)c4cc(F)ccc4n3S(=O)(=O)c3ccc(C(F)F)cc3)c2)c(Cl)c1` [8/8], in data set [1] (setting [3]), the EC50 is under 100 nM. Moreover, in data set [2] (three oral doses of 10 mg/kg), the “liver exposure 4 h” value is given as “B (300 nM to ≤1 μM)”, the “liver/plasma ratio 4 h” value is reported as “B (5 to ≤30)” and the “plasma exposure 4 h” value was “C (C: 100 nM to <300 nM)”.
